Source: PubChem BioAssay (NCI)
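Five concentrations, 48 hours, 96-well plates. The concentration for full growth arrest is given as TGI.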

Columns and labels:
Assay in all cases: DTP human tumour cell line panel, 48 h
[1] = test system: SR leukemia
[2] = test system: KM20L2 colon
[3] = test system: M14 melanoma
[4] = test system: DLD-1 colon
[5] = test system: NCI-H522 lung
[6] = test system: HCT-15 colon
[7] = test system: OVCAR-3 ovarian
[8] = test system: NCI-H23 lung
[9] = test system: ACHN renal
[10] = test system: HL-60(TB) leukemia
[11] = test system: XF 498 CNS
[12] = test system: MOLT-4 leukemia
[13] = test system: TK-10 renal
[14] = test system: M19-MEL melanoma
[15] = test system: CAKI-1 renal
[16] = test system: RPMI-8226 leukemia
[17] = test system: SN12C renal
[18] = test system: HCC-2998 colon
[19] = test system: 786-0 renal
[20] = test system: UO-31 renal
[21] = test system: OVCAR-4 ovarian
[22] = test system: SNB-78 CNS
[23] = test system: EKVX NSCLC
[24] = test system: LXFL 529 NSCLC
[25] = test system: HT29 colon
[26] = test system: OVCAR-8 ovarian
[27] = test system: SF-539 CNS
[28] = test system: SK-MEL-28 melanoma
[29] = test system: K-562 leukemia
[30] = test system: MALME-3M melanoma
[31] = test system: SK-MEL-5 melanoma
[32] = test system: HOP-62 NSCLC
[33] = test system: SK-MEL-2 melanoma
[34] = test system: A549 NSCLC
[35] = test system: A498 renal
[36] = test system: SF-295 CNS
[37] = test system: HCT-116 colon
[38] = test system: RXF-631 renal
[39] = test system: NCI-H226 lung
[40] = test system: DMS 273 small cell lung
[41] = test system: CCRF-CEM leukemia
[42] = test system: UACC-257 melanoma
[43] = test system: IGROV1 ovarian
[44] = test system: HOP-18 NSCLC
[45] = test system: SNB-75 CNS
[46] = test system: LOX IMVI melanoma
[47] = test system: SNB-19 CNS
[48] = test system: U251 CNS
[49] = test system: OVCAR-5 ovarian
[50] = test system: UACC-62 melanoma
[51] = test system: HOP-92 NSCLC
[52] = test system: SW-620 colon
[53] = test system: NCI-H460 lung
[54] = test system: KM12 colon
[55] = test system: COLO 205 colon
[56] = test system: RXF 393 renal
[57] = test system: SF-268 CNS
[58] = test system: SK-OV-3 ovarian

CCOC(=O)c1csc(CCCCCCc2nc(C(=O)OCC)cs2)n1
TGI [1]: > 100 µM | TGI [2]: > 100 µM | TGI [3]: > 100 µM | TGI [4]: > 100 µM | TGI [5]: > 100 µM | TGI [6]: > 100 µM | TGI [7]: > 100 µM | TGI [8]: 99.7 µM | TGI [9]: > 100 µM | TGI [10]: > 65.4 µM | TGI [11]: 86.3 µM | TGI [12]: > 100 µM | TGI [13]: > 100 µM | TGI [14]: 57.5 µM | TGI [15]: > 100 µM | TGI [16]: > 69.2 µM | TGI [17]: > 100 µM | TGI [18]: > 100 µM | TGI [19]: > 56.7 µM | TGI [20]: > 100 µM | TGI [21]: > 100 µM | TGI [22]: > 100 µM | TGI [23]: > 100 µM | TGI [24]: > 100 µM | TGI [25]: > 100 µM | TGI [26]: > 87.2 µM | TGI [27]: > 88 µM | TGI [28]: > 83.8 µM | TGI [29]: > 62 µM | TGI [30]: > 100 µM | TGI [31]: > 100 µM | TGI [32]: > 89.1 µM | TGI [33]: > 100 µM | TGI [34]: > 66.5 µM | TGI [35]: > 100 µM | TGI [36]: > 100 µM | TGI [37]: > 52.3 µM | TGI [38]: > 100 µM | TGI [39]: 97.5 µM | TGI [40]: > 100 µM | TGI [41]: > 63.9 µM | TGI [42]: 96.9 µM | TGI [43]: > 100 µM | TGI [44]: > 100 µM | TGI [45]: 70.4 µM | TGI [46]: > 54.5 µM | TGI [47]: > 100 µM | TGI [48]: > 59.6 µM | TGI [49]: > 100 µM | TGI [50]: > 100 µM | TGI [51]: > 100 µM | TGI [52]: > 65.4 µM | TGI [53]: > 57.7 µM | TGI [54]: > 100 µM | TGI [55]: 98.1 µM | TGI [56]: 64 µM | TGI [57]: > 100 µM | TGI [58]: > 100 µM
